Reference: US9777003B2, “Tricyclic heterocycles as bet protein inhibitors” (Incyte Corporation, priority 2013, dated 2017)
Where a name gives a salt, the structure may show the parent alone.

Experiments:
BRD4-BD2 = BRD4-BD2 (Homo sapiens (Human), UniProt O60885); assay: BRD4 AlphaScreen assay, BRD4-BD2; assay type: binding; settings: biotin-labeled tetra-acetylated histone H4 peptide, 75 min, room temperature, read-out: BRD4 BD-2 enzyme IC50
Procedure: (§1) BRD4-BD1 and BRD4-BD2 assays were conducted in white 384-well polystyrene plate in a final volume of 20 μL for BD1 and 40 μL for BD2. Inhibitors were first serially diluted in DMSO and added to the plate wells before the addition of other reaction components. The final concentration of DMSO in the assay was 1.25% (BD1) and 0.83% (BD2). The assays were carried out at room temperature for 75 min. in the assay buffer (50 mM HEPES, pH 7.4, 100 mM NaCl, 0.05% CHAPS, 0.01% BSA), containing 50 nM Biotin-labeled tetra-acetylated histone H4 peptide (H4Ac4), 3.8 nM (BRD4-BD1, BPS Bioscience #31040) or 20 nM (BRD4-BD2, BPS Bioscience #31041). The reaction followed by the addition of 20 μL of assay buffer supplemented with Streptavidin donor beads (PerkinElmer 6760002) and GSH Acceptor beads (PerkinElmer-AL109C) at 4 μg/mL under reduced light. After plate sealing, the plate was incubated in the dark at room temperature for 75 min. before reading on a PHERAstar FS plate reader (BMG Labtech). IC50 determination was performed by fitting the curve of percent control activity versus the log of the inhibitor concentration using the GraphPad Prism 5.0 software.

BRD4-BD1 = BRD4-BD1 (Homo sapiens (Human), UniProt O60885); assay: BRD4 AlphaScreen assay, BRD4-BD1; assay type: binding; settings: biotin-labeled tetra-acetylated histone H4 peptide, 75 min, room temperature, read-out: BRD4 BD-1 enzyme IC50
Procedure: as §1

Row | Compound | IC50 (BRD4-BD2) | IC50 (BRD4-BD1)
1 | Cc1cc2c(ccc3nnc(C)n32)n1Cc1cccc(CN(C)CCO)c1 [Example 37, 2-[{3-[(1,7-dimethyl-6H-pyrrolo[2,3-e][1,2,4]triazolo[4,3-a]pyridin-6-yl)methyl]benzyl}(methyl)amino]ethanol] | ≤ 0.1 µM | 0.1 to 1 µM
2 | Cc1cc2c(ccc3nnc(C)n32)n1Cc1cccc(CN2CCOCC2)c1 [Example 38, 1,7-dimethyl-6-[3-(morpholin-4-ylmethyl)benzyl]-6H-pyrrolo[2,3-e][1,2,4]triazolo[4,3-a]pyridine] | ≤ 0.1 µM | 0.1 to 1 µM
3 | Cc1cc2c(ccc3nnc(C)n32)n1Cc1cccc(CN[C@H]2C[C@H](O)C2)c1 [Example 39, (1r,3r)-3-((3-((1,7-dimethyl-6H-pyrrolo[2,3-e][1,2,4]triazolo[4,3-a]pyridin-6-yl)methyl)benzyl)amino)cyclobutanol] | ≤ 0.1 µM | 0.1 to 1 µM
4 | Cc1cc2c(ccc3nnc(C)n32)n1Cc1cccc(CN(C)C)c1 [Example 40, 1-{3-[(1,7-dimethyl-6H-pyrrolo[2,3-e][1,2,4]triazolo[4,3-a]pyridin-6-yl)methyl]phenyl}-N,N-dimethylmethanamine] | ≤ 0.1 µM | ≤ 0.1 µM
5 | CNCc1cccc(Cn2c(C)cc3c2ccc2nnc(C)n23)c1 [Example 41, 1-{3-[(1,7-dimethyl-6H-pyrrolo[2,3-e][1,2,4]triazolo[4,3-a]pyridin-6-yl)methyl]phenyl}-N-methylmethanamine] | ≤ 0.1 µM | ≤ 0.1 µM
6 | CCNCc1cccc(Cn2c(C)cc3c2ccc2nnc(C)n23)c1 [Example 42, N-{3-[(1,7-dimethyl-6H-pyrrolo[2,3-e][1,2,4]triazolo[4,3-a]pyridin-6-yl)methyl]benzyl}ethanamine] | ≤ 0.1 µM | ≤ 0.1 µM
7 | CCNC(=O)Nc1cccc(Cn2c(C)cc3c2ccc2nnc(C)n23)c1 [Example 43, N-{3-[(1,7-dimethyl-6H-pyrrolo[2,3-e][1,2,4]triazolo[4,3-a]pyridin-6-yl)methyl]phenyl}-N′-ethylurea Trifluoroacetate Salt] | ≤ 0.1 µM | 0.1 to 1 µM
8 | Cc1cc2c(ccc3nnc(C)n32)n1Cc1cccc(NC(N)=O)c1 [Example 44, N-{3-[(1,7-dimethyl-6H-pyrrolo[2,3-e][1,2,4]triazolo[4,3-a]pyridin-6-yl)methyl]phenyl}urea] | ≤ 0.1 µM | 0.1 to 1 µM
9 | Cc1cc2c(ccc3nnc(C)n32)n1Cc1cccc(CN2CCCC2)c1 [Example 45, 1,7-dimethyl-6-[3-(pyrrolidin-1-ylmethyl)benzyl]-6H-pyrrolo[2,3-e][1,2,4]triazolo[4,3-a]pyridine] | ≤ 0.1 µM | ≤ 0.1 µM
10 | Cc1cc2c(ccc3nnc(C)n32)n1Cc1cccc(CN2CCCCC2)c1 [Example 46, 1,7-dimethyl-6-[3-(piperidin-1-ylmethyl)benzyl]-6H-pyrrolo[2,3-e][1,2,4]triazolo[4,3-a]pyridine] | ≤ 0.1 µM | ≤ 0.1 µM
11 | Cc1cc2c(ccc3nnc(C)n32)n1Cc1cccc(CN2CCN(C)CC2)c1 [Example 47, 1,7-dimethyl-6-{3-[(4-methylpiperazin-1-yl)methyl]benzyl}-6H-pyrrolo[2,3-e][1,2,4]triazolo[4,3-a]pyridine] | ≤ 0.1 µM | 0.1 to 1 µM
12 | Cc1cc2c(ccc3nnc(C)n32)n1Cc1cccc(CN2CCNCC2)c1 [Example 48, 1,7-dimethyl-6-[3-(piperazin-1-ylmethyl)benzyl]-6H-pyrrolo[2,3-e][1,2,4]triazolo[4,3-a]pyridine] | ≤ 0.1 µM | 0.1 to 1 µM
13 | Cc1cc2c(ccc3nnc(C)n32)n1Cc1ccc(CO)cc1 [Example 49, {4-[(1,7-dimethyl-6H-pyrrolo[2,3-e][1,2,4]triazolo[4,3-a]pyridin-6-yl)methyl]phenyl}methanol] | ≤ 0.1 µM | 0.1 to 1 µM
14 | Cc1cc2c(ccc3nnc(C)n32)n1Cc1ccc(CN2CCC2)cc1 [Example 50, 6-[4-(azetidin-1-ylmethyl)benzyl]-1,7-dimethyl-6H-pyrrolo[2,3-e][1,2,4]triazolo[4,3-a]pyridine] | ≤ 0.1 µM | ≤ 0.1 µM
15 | Cc1cc2c(ccc3nnc(C)n32)n1Cc1ccc(CN2CCCC2)cc1 [Example 51, 1,7-dimethyl-6-[4-(pyrrolidin-1-ylmethyl)benzyl]-6H-pyrrolo[2,3-e][1,2,4]triazolo[4,3-a]pyridine] | 0.1 to 1 µM | 0.1 to 1 µM

Results, then the compound that gave them:

Row | IC50 (BRD4-BD2) | IC50 (BRD4-BD1) | Compound
16 | 0.1 to 1 µM | 0.1 to 1 µM | Cc1cc2c(ccc3nnc(C)n32)n1Cc1ccc(CN2CC(O)C2)cc1 [Example 52, 1-{4-[(1,7-dimethyl-6H-pyrrolo[2,3-e][1,2,4]triazolo[4,3-a]pyridin-6-yl)methyl]benzyl}azetidin-3-ol]
17 | 0.1 to 1 µM | 0.1 to 1 µM | Cc1cc2c(ccc3nnc(C)n32)n1Cc1ccc(CN(C)C)cc1 [Example 53, 1-{4-[(1,7-dimethyl-6H-pyrrolo[2,3-e][1,2,4]triazolo[4,3-a]pyridin-6-yl)methyl]phenyl}-N,N-dimethylmethanamine]
18 | ≤ 0.1 µM | 0.1 to 1 µM | COC1CN(Cc2cccc(Cn3c(C)cc4c3ccc3nnc(C)n34)c2)C1 [Example 54, 6-{3-[(3-methoxyazetidin-1-yl)methyl]benzyl}-1,7-dimethyl-6H-pyrrolo[2,3-e][1,2,4]triazolo[4,3-a]pyridine]
19 | ≤ 0.1 µM | 0.1 to 1 µM | Cc1nc2c(ccc3nnc(C)n32)n1Cc1ccccc1 [Example 55, 3-benzyl-2,8-dimethyl-3H-imidazo[4,5-e][1,2,4]triazolo[4,3-a]pyridine]
20 | ≤ 0.1 µM | 0.1 to 1 µM | Cc1nnc2ccc3c(cc(CO)n3Cc3ccccc3)n12 [Example 56, (6-benzyl-1-methyl-6H-pyrrolo[2,3-e][1,2,4]triazolo[4,3-a]pyridin-7-yl)methanol]
21 | 0.1 to 1 µM | 1 to 10 µM | Cc1nnc2ccc3c(cc(Cn4ccnc4)n3Cc3ccccc3)n12 [Example 57, 6-benzyl-7-(1H-imidazol-1-ylmethyl)-1-methyl-6H-pyrrolo[2,3-e][1,2,4]triazolo[4,3-a]pyridine]
22 | ≤ 0.1 µM | ≤ 0.1 µM | Cc1nnc2ccc3c(cc(C(N)=O)n3Cc3ccccc3)n12 [Example 58, 6-benzyl-1-methyl-6H-pyrrolo[2,3-e][1,2,4]triazolo[4,3-a]pyridine-7-carboxamide]
23 | ≤ 0.1 µM | ≤ 0.1 µM | CCNC(=O)c1cc2c(ccc3nnc(C)n32)n1Cc1ccccc1 [Example 59, 6-benzyl-N-ethyl-1-methyl-6H-pyrrolo[2,3-e][1,2,4]triazolo[4,3-a]pyridine-7-carboxamide]
24 | ≤ 0.1 µM | 0.1 to 1 µM | Cc1nnc2ccc3c(cc(C(=O)N4CC(C#N)C4)n3Cc3ccccc3)n12 [Example 60, 1-[(6-benzyl-1-methyl-6H-pyrrolo[2,3-e][1,2,4]triazolo[4,3-a]pyridin-7-yl)carbonyl]azetidine-3-carbonitrile]
25 | 0.1 to 1 µM | 1 to 10 µM | Cc1nnc2ccc3c(cc(CCO)n3Cc3ccccc3)n12 [Example 61, 2-(6-benzyl-1-methyl-6H-pyrrolo[2,3-e][1,2,4]triazolo[4,3-a]pyridin-7-yl)ethanol]
26 | ≤ 0.1 µM | ≤ 0.1 µM | Cc1nnc2ccc3c(cc(-c4ccn[nH]4)n3Cc3ccccc3)n12 [Example 62, 6-benzyl-1-methyl-7-(1H-pyrazol-5-yl)-6H-pyrrolo[2,3-e][1,2,4]triazolo[4,3-a]pyridine]
27 | ≤ 0.1 µM | ≤ 0.1 µM | Cc1nnc2ccc3c(cc(-c4cn[nH]c4)n3Cc3ccccc3)n12 [Example 63, 6-benzyl-1-methyl-7-(1H-pyrazol-4-yl)-6H-pyrrolo[2,3-e][1,2,4]triazolo[4,3-a]pyridine]
28 | ≤ 0.1 µM | ≤ 0.1 µM | Cc1nnc2ccc3c(cc(-c4cnn(CC#N)c4)n3Cc3ccccc3)n12 [Example 64, [4-(6-benzyl-1-methyl-6H-pyrrolo[2,3-e][1,2,4]triazolo[4,3-a]pyridin-7-yl)-1H-pyrazol-1-yl]acetonitrile]
29 | ≤ 0.1 µM | ≤ 0.1 µM | Cc1nnc2ccc3c(cc(-c4ccn(CC#N)n4)n3Cc3ccccc3)n12 [Example 65, [3-(6-benzyl-1-methyl-6H-pyrrolo[2,3-e][1,2,4]triazolo[4,3-a]pyridin-7-yl)-1H-pyrazol-1-yl]acetonitrile]
30 | ≤ 0.1 µM | ≤ 0.1 µM | Cc1nnc2ccc3c(cc(-c4cscn4)n3Cc3ccccc3)n12 [Example 66, 6-benzyl-1-methyl-7-(1,3-thiazol-4-yl)-6H-pyrrolo[2,3-e][1,2,4]triazolo[4,3-a]pyridine]
31 | ≤ 0.1 µM | ≤ 0.1 µM | Cc1nnc2ccc3c(cc(-c4nccs4)n3Cc3ccccc3)n12 [Example 67, 6-benzyl-1-methyl-7-(1,3-thiazol-2-yl)-6H-pyrrolo[2,3-e][1,2,4]triazolo[4,3-a]pyridine]
32 | ≤ 0.1 µM | 0.1 to 1 µM | Cc1nnc2ccc3c(cc(-c4ccccn4)n3Cc3ccccc3)n12 [Example 68, 6-benzyl-1-methyl-7-pyridin-2-yl-6H-pyrrolo[2,3-e][1,2,4]triazolo[4,3-a]pyridine]
33 | ≤ 0.1 µM | 0.1 to 1 µM | Cc1nnc2ccc3c(cc(-c4cncs4)n3Cc3ccccc3)n12 [Example 69, 6-benzyl-1-methyl-7-(1,3-thiazol-5-yl)-6H-pyrrolo[2,3-e][1,2,4]triazolo[4,3-a]pyridine]
